Source: patent US6527981B1, “Azole/amine oxide preservatives” (Lonza Inc., priority 1999, dated 2003)
In brackets after ≈: the same amount, converted by molar mass. Where two headings read alike, the source gives them in different places.

Tests used:
[1] = test system: T. versicolor (white rot fungi); assay: agar dilution plate method, wood rot fungi (MIC, IC50, percent retardation); type: cell-based; conditions: for MIC: Trametes versicolor
[2] = test system: C. globosum (soft rot decay fungi); assay: as above; type: cell-based; conditions: for MIC: Chaetomium globosum
[3] = test system: G. trabeum (brown rot fungi); assay: as above; type: cell-based; conditions: for MIC: Gloeophyllum trabeum
[4] = test system: P. placenta (brown rot fungi); assay: as above; type: cell-based
[5] = 25° C., cited from earlier work
[6] = ppm of amine oxide or didecyldimethyl ammonium chloride, Table2D curve fitting
[7] = azole alone, read-out: T. versicolor MIC
[8] = azole alone, Table2D curve fitting
[9] = azole alone, read-out: C. globosum MIC
[10] = azole alone, read-out: G. trabeum MIC
[11] = azole alone, read-out: P. placenta MIC
[12] = amine oxide alone, 100% growth retardation, read-out: MIC (ppm of amine oxides) T. versicolor
[13] = amine oxide alone, 100% growth retardation, read-out: MIC (ppm of amine oxides) G. trabeum
[14] = amine oxide alone, 100% growth retardation, read-out: MIC (ppm of amine oxides) P. placenta
[15] = amine oxide alone, 100% growth retardation

Question: What does the source list for `CCCCCCCCCC[N+](C)(C)CCCCCCCCCC.[Cl-]` [Bardac ® 2280, didecyldimethyl ammonium chloride]?
Answer: MIC ([1]; Table 8, ppm of amine oxide or didecyldimethyl ammonium chloride, read-out: MIC T. versicolor): > 1000 µg/mL; IC50 T. versicolor [1, 6]: 28 ppm; MIC ([2]; read-out: MIC C. globosum): > 1000 µg/mL; IC50 C. globosum [2, 6]: 28 ppm; MIC ([3]; Table 8, ppm of amine oxide or didecyldimethyl ammonium chloride, read-out: MIC G. trabeum): > 1000 µg/mL; IC50 G. trabeum [3, 6]: 8 ppm; MIC ([4]; Table 8, ppm of amine oxide or didecyldimethyl ammonium chloride, read-out: MIC P. placenta): 1000 µg/mL; IC50 P. placenta [4, 6]: <5 ppm

Question: What does the source list for `CCCC1COC(Cn2cncn2)(c2ccc(Cl)cc2Cl)O1` (stereo not shown) [Propiconazole, propiconazole]?
Answer: MIC [1, 7]: 50 µg/mL (≈ 146 µM); Qb, concentration of azole alone required to yield 100% retardation, T. versicolor ([1]; azole alone): 50 ppm; T. versicolor IC50 [1, 8]: 3 ppm; MIC [2, 9]: > 50 µg/mL; C. globosum IC50 [2, 8]: 11.7 ppm; MIC [3, 10]: > 50 µg/mL; Qb, concentration of azole alone required to yield 100% retardation, G. trabeum ([3]; azole alone): 50 ppm; G. trabeum IC50 [3, 8]: 0.9 ppm; Qb, concentration of azole alone required to yield 100% retardation, P. placenta ([4]; azole alone): 50 ppm; P. placenta IC50 [4, 8]: 0.7 ppm; MIC [4, 11]: 50 µg/mL (≈ 146 µM)

Question: Which results are given for `CCCCCCCCCCCC[N+](C)(C)[O-]` [Dodecyl-DMAO, dodecyldimethylamine oxide]?
Answer: MIC [1, 12]: 250 µg/mL (≈ 1090 µM); Qa, concentration of amine oxide alone required to yield 100% retardation, T. versicolor ([1]; amine oxide alone): 250 ppm; MIC ([2]; read-out: MIC (ppm of amine oxides) C. globosum): > 1000 µg/mL; MIC [3, 13]: 250 µg/mL (≈ 1090 µM); Qa, concentration of amine oxide alone required to yield 100% retardation, G. trabeum ([3]; amine oxide alone): 250 ppm; Qa, concentration of amine oxide alone required to yield 100% retardation, P. placenta ([4]; amine oxide alone): 250 ppm; MIC [4, 14]: 250 µg/mL (≈ 1090 µM)

Question: What does the source list for “branched alkyl (C10-C14) dimethylamine oxide [Branched alkyl (C10-C14) DMAO]”?
Answer: IC50 T. versicolor [1]: 84 ppm; MIC (ppm of amine oxides) T. versicolor [1]: 500 ppm; MIC T. versicolor [1]: 500 ppm; Qa, concentration of amine oxide alone required to yield 100% retardation, T. versicolor [1]: 500 ppm; MIC C. globosum ([2]; Table 8, ppm of amine oxide or didecyldimethyl ammonium chloride): >1000 ppm; MIC (ppm of amine oxides) C. globosum [2, 15]: >1000 ppm; IC50 C. globosum [2, 6]: 153 ppm; IC50 G. trabeum [3]: 44 ppm; MIC (ppm of amine oxides) G. trabeum [3]: 250 ppm; MIC G. trabeum [3]: 250 ppm; Qa, concentration of amine oxide alone required to yield 100% retardation, G. trabeum [3]: 250 ppm; IC50 P. placenta [4]: 89 ppm; MIC (ppm of amine oxides) P. placenta [4]: 500 ppm; MIC P. placenta [4]: 500 ppm; Qa, concentration of amine oxide alone required to yield 100% retardation, P. placenta [4]: 500 ppm

Question: For `CCCCCCCCCCCC[N+]1([O-])CCOCC1` [Lauryl morpholine N-oxide, lauryl morpholine N-oxide], which “Qa, concentration of amine oxide alone required to yield 100% retardation, T. versicolor” value ([1]; amine oxide alone) is on record?
Answer: The value was 750 ppm.

Question: What about the “MIC (ppm of amine oxides) T. versicolor” value [1, 15] of the same molecule?
Answer: Its value is 750 ppm.

Question: What about the “MIC (ppm of amine oxides) C. globosum” value [2, 15] of the same molecule?
Answer: Its value is >1000 ppm.

Question: And the “Qa, concentration of amine oxide alone required to yield 100% retardation, G. trabeum” value ([3]; amine oxide alone)?
Answer: The value was 1000 ppm.

Question: And the “MIC (ppm of amine oxides) G. trabeum” value [3, 15]?
Answer: Its value is 1000 ppm.

Question: What about the “Qa, concentration of amine oxide alone required to yield 100% retardation, P. placenta” value ([4]; amine oxide alone) of the same molecule?
Answer: The value was 500 ppm.

Question: And the “MIC (ppm of amine oxides) P. placenta” value [4, 15]?
Answer: The value was 500 ppm.

Question: For `CCCCCCCCCCCCCCCCCCCCCC[N+](C)(C)[O-]` [Behenyl DMAO], which “Qa, concentration of amine oxide alone required to yield 100% retardation, T. versicolor” value ([1]; amine oxide alone) is on record?
Answer: The value was 1000 ppm.

Question: And the “MIC (ppm of amine oxides) T. versicolor” value [1, 15]?
Answer: Its value is >1000 ppm.

Question: And the “MIC (ppm of amine oxides) C. globosum” value [2, 15]?
Answer: The value was >1000 ppm.

Question: And the “Qa, concentration of amine oxide alone required to yield 100% retardation, G. trabeum” value ([3]; amine oxide alone)?
Answer: Its value is 1000 ppm.

Question: What about the “MIC (ppm of amine oxides) G. trabeum” value [3, 15] of the same molecule?
Answer: Its value is >1000 ppm.

Question: And the “Qa, concentration of amine oxide alone required to yield 100% retardation, P. placenta” value ([4]; amine oxide alone)?
Answer: The value was 1000 ppm.

Question: And the “MIC (ppm of amine oxides) P. placenta” value [4, 15]?
Answer: Its value is >1000 ppm.

Question: Which results are given for `CCCCCCCCCCCCCCCC[N+](C)(C)[O-]` [Hexadecyl-DMAO, hexadecyl dimethylamine oxide]?
Answer: MIC [1, 12]: > 1000 µg/mL; Qa, concentration of amine oxide alone required to yield 100% retardation, T. versicolor ([1]; amine oxide alone): 1000 ppm; MIC ([2]; amine oxide alone, 100% growth retardation, read-out: MIC (ppm of amine oxides) C. globosum): > 1000 µg/mL; MIC [3, 13]: > 1000 µg/mL; Qa, concentration of amine oxide alone required to yield 100% retardation, G. trabeum ([3]; amine oxide alone): 1000 ppm; Qa, concentration of amine oxide alone required to yield 100% retardation, P. placenta ([4]; amine oxide alone): 1000 ppm; MIC [4, 14]: > 1000 µg/mL

Question: With `CCCCCCCC/C=C\CCCCCCCC[N+](C)(C)[O-]` [Oleyl-DMAO] as the molecule, how does the “MIC (ppm of amine oxides) T. versicolor” value [1, 15] read?
Answer: The value was >1000 ppm.

Question: What about the “MIC (ppm of amine oxides) C. globosum” value [2, 15] of the same molecule?
Answer: Its value is >1000 ppm.

Question: And the “MIC (ppm of amine oxides) G. trabeum” value [3, 15]?
Answer: Its value is >1000 ppm.

Question: And the “MIC (ppm of amine oxides) P. placenta” value [4, 15]?
Answer: The value was >1000 ppm.

Question: With “tallow-alkyl-di(hydroxyethyl)amine oxide [Tallow-di(hydroxyethyl)-amine oxide]” as the molecule, how does the “MIC (ppm of amine oxides) T. versicolor” value [1, 15] read?
Answer: Its value is >1000 ppm.

Question: And the “MIC (ppm of amine oxides) C. globosum” value [2, 15]?
Answer: Its value is >1000 ppm.

Question: What about the “MIC (ppm of amine oxides) G. trabeum” value [3, 15] of the same molecule?
Answer: The value was >1000 ppm.

Question: And the “MIC (ppm of amine oxides) P. placenta” value [4, 15]?
Answer: Its value is >1000 ppm.

Question: With `CCCCC(C#N)(Cn1cncn1)c1ccc(Cl)cc1` (stereo not shown) [Myclobutanil, myclobutanil] as the molecule, how does the MIC [1, 7] read?
Answer: Its MIC is 50 µg/mL (≈ 173 µM).

Question: What about the “T. versicolor IC50” value [1, 8] of the same molecule?
Answer: The value was 6 ppm.

Question: And the MIC [2, 9]?
Answer: Its MIC is > 50 µg/mL.

Question: What about the MIC [3, 10] of the same molecule?
Answer: Its MIC is > 50 µg/mL.

Question: And the “G. trabeum IC50” value [3, 8]?
Answer: The value was 4.3 ppm.

Question: What about the “Solubility in Water^b” value ([5]; Material Safety Data Sheet) of the same molecule?
Answer: Its value is 142 ppm at 25 °C.

Question: And the “Solubility in water^a” value ([5]; The Pesticide Manual, 11th Edition)?
Answer: Its value is 142 ppm/25 °C.

Question: What about the “P. placenta IC50” value [4, 8] of the same molecule?
Answer: Its value is 13 ppm.

Question: And the MIC [4, 11]?
Answer: The MIC was 50 µg/mL (≈ 173 µM).
